Data on 15 compounds can be found in PMC8467848 (Molecules, 2021).

The target in data set [1] is T1, μ-opioid receptor (Mus musculus, UniProt P42866).
T1 construct: performed on mouse brain homogenates in the presence of ^3H-DAMGO for μ-receptor; from tissue; host or cells: mouse brain membranes / homogenates
Description: biochemical. Format: binding.

The target of data set [2] is T2, κ-opioid receptor (Mus musculus, UniProt P33534).
T2 construct: performed on mouse brain homogenates; from tissue; host or cells: mouse brain membranes / homogenates
T2 sequence (P33534 whole entry): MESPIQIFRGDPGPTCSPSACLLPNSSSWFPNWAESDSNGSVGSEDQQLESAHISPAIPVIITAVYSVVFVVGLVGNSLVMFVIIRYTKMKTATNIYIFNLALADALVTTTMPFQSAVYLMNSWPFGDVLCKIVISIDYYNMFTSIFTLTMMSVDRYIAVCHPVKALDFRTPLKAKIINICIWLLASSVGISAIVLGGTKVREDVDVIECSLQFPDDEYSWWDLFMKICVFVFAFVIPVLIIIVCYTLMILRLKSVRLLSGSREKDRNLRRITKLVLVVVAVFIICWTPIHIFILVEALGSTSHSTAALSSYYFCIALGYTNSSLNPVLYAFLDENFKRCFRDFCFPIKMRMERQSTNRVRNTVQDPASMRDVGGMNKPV
The data set is described as follows: biochemical. Format: binding.

For data set [3], the target named is T3, δ-opioid receptor (Mus musculus, UniProt P32300).
T3 construct: performed on mouse brain homogenates; from tissue; host or cells: mouse brain membranes / homogenates
T3 sequence (P32300 whole entry): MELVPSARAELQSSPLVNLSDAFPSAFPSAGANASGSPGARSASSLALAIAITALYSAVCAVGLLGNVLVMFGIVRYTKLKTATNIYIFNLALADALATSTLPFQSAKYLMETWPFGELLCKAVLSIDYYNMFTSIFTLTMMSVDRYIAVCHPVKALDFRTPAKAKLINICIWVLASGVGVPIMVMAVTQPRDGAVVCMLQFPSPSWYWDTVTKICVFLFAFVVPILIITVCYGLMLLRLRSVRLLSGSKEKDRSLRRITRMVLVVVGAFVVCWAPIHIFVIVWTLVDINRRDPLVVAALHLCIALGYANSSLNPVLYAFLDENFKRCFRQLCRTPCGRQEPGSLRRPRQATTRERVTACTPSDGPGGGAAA
Description: biochemical. Format: binding.

The term melting point denotes the temperature, or range, at which the solid turns liquid. The Ki is the dissociation constant of the complex between target and ligand, obtained from inhibition or displacement. A higher Ki goes with lower affinity.

Each structure is given as a SMILES string. Structures can show the parent of a compound that is named as a salt.

T1 sequence (P42866 whole entry): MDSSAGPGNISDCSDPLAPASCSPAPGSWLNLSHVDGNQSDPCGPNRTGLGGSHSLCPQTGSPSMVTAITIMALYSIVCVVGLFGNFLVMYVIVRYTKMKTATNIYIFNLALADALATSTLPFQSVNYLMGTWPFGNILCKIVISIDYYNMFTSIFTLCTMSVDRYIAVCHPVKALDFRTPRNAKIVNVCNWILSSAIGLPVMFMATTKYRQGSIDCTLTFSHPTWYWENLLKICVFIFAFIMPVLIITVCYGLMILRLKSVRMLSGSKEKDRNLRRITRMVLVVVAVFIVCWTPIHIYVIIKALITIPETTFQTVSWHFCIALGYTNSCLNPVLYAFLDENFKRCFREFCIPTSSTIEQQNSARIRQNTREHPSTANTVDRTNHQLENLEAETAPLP

In turn, `CCC(=O)N1C2CCC1C1CCC2N1CC=C1CCc2ccccc21` (as salt: hydrochloride) gave a melting point of 132 to 134 °C.
In the case of `CCC(=O)N1C2CCC1C1CCC2N1CC=C1CCc2cc(F)ccc21` (as salt: hydrochloride), the melting point is 181 to 183 °C.
The same measure, in the same setting: as for `CCC(=O)N1C2CCC1C1CCC2N1CC=C1CCc2cc(Cl)ccc21` (as salt: hydrochloride), the figure is 170 to 173 °C; as for `CCC(=O)N1C2CCC1C1CCC2N1CC=C1CCc2cc(Br)ccc21` (as salt: hydrochloride), 167 to 170 °C.
Compound `CCC(=O)N1C2CCC3C1CCC2N3CC=C1CCc2ccccc21` (as salt: hydrochloride) came in with a melting point of 167 to 170 °C.
The same measure, in the same setting: next, `CCC(=O)N1C2CCC3C1CCC2N3CC=C1CCc2cc(Cl)ccc21` (as salt: hydrochloride): 179 to 181 °C.
Still for that read-out and setting: as for `CCC(=O)N1C2CCC3C1CCC2N3CC=C1CCc2cc(Br)ccc21` (as salt: hydrochloride), the figure is 177 to 179 °C.
Same read-out and setting: as for `CCC(=O)N1C2CCC3C1CCC2N3CC=C1CCc2cc(F)ccc21` (as salt: hydrochloride) [Compound 25, 2-Propionyl-7-[(E)-1-(2-(5-fluoro-2,3-dihydro-1H-inden-1-ylidene)ethyl]-2,7-diazatricyclo[4.2.0.0^3,8]decane], the figure is 131 to 133 °C; as for `CCC(=O)N1C2CCC1C1CCC2N1Cc1cc2ccccc2[nH]1` (as salt: hydrochloride) [Compound 53, 9-Propionyl-10-(1H-indol-2-ylmethyl)-9, 10-diazatricyclo[4.2.1.1^2.5]decane], 106 °C.
`CCC(=O)N1C2CCC3C1CCC2N3Cc1cc2ccccc2[nH]1` (as salt: hydrochloride) [Compound 54, 2-Propionyl-7-(1H-indol-2-ylmethyl)-2,7-diazatricyclo[4.4.0.0^3.8]decane] came in with a melting point of 54 °C.
On the same count and under the same terms, as for `CCC(=O)N1C2CCC1C1CCC2N1Cc1cnc2ccccc2n1` (as salt: hydrochloride) [Compound 59, 9-Propionyl-10-(quinoxalyn-2-ylmethyl)-9,10-diazatricyclo[4.2.1.1^2,5]decane], the figure is 128 °C.
With `CCC(=O)N1C2CCC1C1CCC2N1Cc1cc2ccccc2[nH]1` [Compound 53, 9-Propionyl-10-(1H-indol-2-ylmethyl)-9, 10-diazatricyclo[4.2.1.1^2.5]decane], in data set [1], affinity was put at a Ki of 0.022 ± 0.003 µM and the “μ-affinity / binding in words” value is “nanomolar range”. In data set [2], the Ki was above 1 µM and the “affinity towards κ-receptors in words” value is “negligible affinity”. In addition, in data set [3], the Ki is above 1 µM and the “affinity towards δ-receptors in words” value is recorded as “negligible affinity”.
In the case of `CCC(=O)N1C2CCC3C1CCC2N3Cc1cc2ccccc2[nH]1` [Compound 54, 2-Propionyl-7-(1H-indol-2-ylmethyl)-2,7-diazatricyclo[4.4.0.0^3.8]decane], the Ki is 0.5 ± 0.045 µM in data set [1], above 1 µM in data set [2] and above 1 µM in data set [3]. For the same compound, the “fold lower μ-affinity compared to its isomer” value in data set [1] worked out at 23 fold.
Consider `CCC(=O)N1C2CCC3C1CCC2N3Cc1ccc2ccccc2n1` [Compound 58, 2-Propionyl-7-(quinolyn-2-ylmethyl)-2,7-diazatricyclo[4.2.0.0^3,8]decane], for which the Ki in data set [1] is 0.49 ± 0.046 µM; in data set [2], above 1 µM; in data set [3], above 1 µM.
Regarding `CCC(=O)N1C2CCC1C1CCC2N1Cc1cnc2ccccc2n1` [Compound 59, 9-Propionyl-10-(quinoxalyn-2-ylmethyl)-9,10-diazatricyclo[4.2.1.1^2,5]decane], the Ki in data set [1], in data set [2] and in data set [3] was above 1 µM each time.
